Results published in patent US8044198B2, “Sirtuin modulating compounds” (Sirtris Pharmaceuticals, Inc., priority 2005, dated 2011).
Where two headings read alike, the source gives them in different places.

Target: T1, SIRT1 (Homo sapiens, UniProt Q96EB6)
T1 sequence (Q96EB6 1-747): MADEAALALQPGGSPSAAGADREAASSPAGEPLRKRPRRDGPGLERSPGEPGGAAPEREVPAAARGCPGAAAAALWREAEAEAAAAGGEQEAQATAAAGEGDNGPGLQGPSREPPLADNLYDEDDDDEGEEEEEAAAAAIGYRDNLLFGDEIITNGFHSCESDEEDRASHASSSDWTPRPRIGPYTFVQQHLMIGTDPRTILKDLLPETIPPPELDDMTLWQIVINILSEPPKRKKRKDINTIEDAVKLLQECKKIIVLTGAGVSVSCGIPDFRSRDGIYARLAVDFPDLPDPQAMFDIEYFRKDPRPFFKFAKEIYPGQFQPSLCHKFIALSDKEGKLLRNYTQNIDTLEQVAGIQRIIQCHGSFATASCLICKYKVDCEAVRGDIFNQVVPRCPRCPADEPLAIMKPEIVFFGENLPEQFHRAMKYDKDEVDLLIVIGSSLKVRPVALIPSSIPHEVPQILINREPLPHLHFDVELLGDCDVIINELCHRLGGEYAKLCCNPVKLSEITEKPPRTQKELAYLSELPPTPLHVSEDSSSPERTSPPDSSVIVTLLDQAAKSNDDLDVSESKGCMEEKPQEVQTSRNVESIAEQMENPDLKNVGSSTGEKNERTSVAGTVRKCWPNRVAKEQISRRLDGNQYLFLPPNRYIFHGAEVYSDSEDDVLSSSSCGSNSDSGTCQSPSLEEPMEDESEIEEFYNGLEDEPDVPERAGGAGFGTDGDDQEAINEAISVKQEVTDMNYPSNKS
Assay: SIRT1 mass spectrometry (MS) based deacetylation assay; as to FOLD ACT. MS: test concentration or dose not given here
Format: biochemical

[1] = SIRT1 activation, mass spectrometry assay, read-out: ED50 MS ASSAY
[2] = fold activation of SIRT1 as determined by MS

Structure (SMILES) | EC50 [1] [µM] | FOLD ACT. MS (fold activation of SIRT1, mass spectrometry assay) | FOLD ACT. MS [2] | EC50 [µM]
COc1cc(C(=O)Nc2ccccc2-c2cccs2)cc(OC)c1OC [336 10] | 5 to 50 | B (B (Fold Activation <250%)) |  | 
O=C(Nc1cccc(-c2nc3ncccc3o2)c1)c1ccccc1 [Compound 56] | 5 to 50 |  | B (B (Fold Activation <250%)) | 
COc1cc(C(=O)Nc2cccc(-c3nc4ncccc4o3)n2)cc(OC)c1OC [Compound 57] | 5 to 50 |  |  | 
COc1ccc(S(=O)(=O)Nc2cccc(-c3nc4ncccc4o3)n2)cc1OC [Compound 60] | 5 to 50 |  |  | 
COc1ccc(C(=O)Nc2cc(-c3nc4ncccc4o3)ccn2)cc1OC [Compound 63] | 5 to 50 |  |  | 
CN(C)c1cccc(C(=O)Nc2cccc(-c3nc4ncccc4o3)n2)c1 [Compound 64] | 5 to 50 |  |  | 
COc1cc(C(=O)Nc2cncc(-c3nc4ncccc4o3)c2)cc(OC)c1OC [Compound 66] | 5 to 50 |  |  | 
COc1ccc(C(=O)Nc2cncc(-c3nc4ncccc4o3)c2)cc1OC [Compound 67] | 5 to 50 |  |  | 
CN(C)c1cccc(C(=O)Nc2cncc(-c3nc4ncccc4o3)c2)c1 [Compound 68] | 5 to 50 |  |  | 
COc1ccc(C(=O)Nc2cccc(-c3nc4ncccc4o3)n2)c(OC)c1 [Compound 69] | 5 to 50 |  | B (B (Fold Activation <250%)) | 
CN(C)c1ccc(C(=O)Nc2cccc(-c3nc4ncccc4o3)n2)cc1 [Compound 70] | 5 to 50 |  | B (B (Fold Activation <250%)) | 
O=C(Nc1ccc2c(c1)OCO2)Nc1cccc(-c2nc3ncccc3o2)n1 [Compound 71] | 5 to 50 |  | B (B (Fold Activation <250%)) | 
COc1ccc(S(=O)(=O)Nc2cncc(-c3nc4ncccc4o3)c2)cc1OC [Compound 74] | > 150 |  |  | 
COc1cc(C(=O)Nc2cc(-c3nc4ncccc4o3)ccn2)cc(OC)c1OC [Compound 75] | 5 to 50 |  | B (B (Fold Activation <250%)) | 
CN(C)c1cccc(C(=O)Nc2cc(-c3nc4ncccc4o3)ccn2)c1 [Compound 76] | 5 to 50 |  | B (B (Fold Activation <250%)) | 
COc1ccc(C(=O)Nc2cc(-c3nc4ccccc4o3)ccn2)cc1OC [Compound 77] |  |  | B (B (Fold Activation <250%)) | 5 to 50
COc1ccc(C(=O)Nc2cccc(-c3csc(C)n3)c2)cc1OC [Compound 80] | 5 to 50 |  | B (B (Fold Activation <250%)) | 
COc1ccc(C(=O)Nc2cccc(-c3csc(C)n3)c2)c(OC)c1 [Compound 81] | 5 to 50 |  | B (B (Fold Activation <250%)) | 
COc1ccc(C(=O)Nc2cccc(-c3nnc(-c4ccccc4)o3)c2)c(OC)c1 [Compound 82] | 101 to 150 |  |  | 

Structure (SMILES) | EC50 [1] [µM] | FOLD ACT. MS (fold activation of SIRT1, mass spectrometry assay) | FOLD ACT. MS [2] | EC50 [µM]
COc1cc(SC)ccc1C(=O)Nc1cccc(-c2nncn2C)c1 [Compound 83] | 5 to 50 |  | B (B (Fold Activation <250%)) | 
COc1ccc(C(=O)Nc2cccc(-c3csc(-c4ccccc4)n3)c2)cc1OC [Compound 84] | 5 to 50 |  | B (B (Fold Activation <250%)) | 
c1ccc2oc(N3CCCN(c4nc5ccccc5o4)CC3)nc2c1 [Compound 85] | > 150 |  |  | 
CN(C)c1ccc(NC(=O)Nc2cccc(-c3nc4ncccc4o3)n2)cc1 [Compound 87] | > 150 |  |  | 
COc1ccc(C(=O)N2CCCN(c3nc4ccccc4o3)CC2)c(OC)c1 [Compound 88] | > 150 |  |  | 
c1cc(Nc2nc3ccccc3s2)cc(-c2nc3ncccc3o2)c1 [Compound 95] | < 5 |  | B (B (Fold Activation <250%)) | 
COc1ccc(C(=O)Nc2ccccc2-c2nc3ncccc3o2)cc1OC [Compound 96] | < 5 |  | B (B (Fold Activation <250%)) | 
CC(C)(C)c1ccc(S(=O)(=O)Nc2ccccc2-c2nc3ncccc3o2)cc1 [Compound 98] | > 150 |  |  | 
O=C(NCc1ccc2c(c1)OCO2)c1cccc(-c2nc3ncccc3o2)c1 [Compound 103] | > 150 |  |  | 
COc1ccc(C(=O)Nc2cc(C(=O)N3CCNCC3)cc(-c3nc4ncccc4o3)c2)cc1OC [Compound 107, 3,4-dimethoxy-N-(3-(oxazolo[4,5-b]pyridin-2-yl)-5-(piperazine-1-carbonyl)phenyl)benzamide] | 5 to 50 |  | B (B (Fold Activation <250%)) | 
O=C(Nc1cccc(-c2nc3ncccc3o2)c1)c1ccccc1N1CCOCC1 [Compound 109] | 5 to 50 |  | B (B (Fold Activation <250%)) | 
CN(C)c1cccc(C(=O)Nc2cccc(-c3nc4cccnc4o3)c2)c1 [Compound 111] | 5 to 50 |  | B (B (Fold Activation <250%)) | 
COc1ccc(C(=O)Nc2cccc(-c3nc4cccnc4o3)c2)cc1OC [Compound 112] | 5 to 50 |  | B (B (Fold Activation <250%)) | 
CN(C)c1cccc(C(=O)Nc2cccc(-c3nc4ccncc4s3)c2)c1 [Compound 113] | 5 to 50 |  | B (B (Fold Activation <250%)) | 
COc1ccc(C(=O)Nc2cccc(-c3nc4ccncc4s3)c2)cc1OC [Compound 114] | < 5 |  | A (A (Fold activation >250%)) | 
COc1cc(C(=O)Nc2cccc(-c3nc4sccn4n3)c2)cc(OC)c1OC [Compound 118] | 5 to 50 |  | A (A (Fold activation >250%)) | 
COc1cccc(OC)c1C(=O)Nc1cccc(-c2nc3ccccc3o2)c1 [Compound 119] | 5 to 50 |  | B (B (Fold Activation <250%)) | 
COc1ccc(C(=O)Nc2cccc(-c3nc4ccccc4s3)c2)c(OC)c1 [Compound 124] | 5 to 50 |  | B (B (Fold Activation <250%)) | 
COc1cc(C(=O)Nc2cccc(-c3nc4ccccc4c(=O)o3)c2)cc(OC)c1OC [Compound 125] |  |  | B (B (Fold Activation <250%)) | 

Structure (SMILES) | EC50 [1] [µM] | FOLD ACT. MS (fold activation of SIRT1, mass spectrometry assay) | FOLD ACT. MS [2] | EC50 [µM]
COc1cccc(OC)c1C(=O)Nc1cccc(-c2nc3ccccc3[nH]2)c1 [Compound 126] | 5 to 50 |  | B (B (Fold Activation <250%)) | 
COc1ccc(C(=O)Nc2cccc(-c3cn4ccc(C)cc4n3)c2)c(OC)c1 [Compound 128] | 5 to 50 |  | B (B (Fold Activation <250%)) | 
COc1cc(C(=O)Nc2cccc(-c3cn4ccc(C)cc4n3)c2)cc(OC)c1OC [Compound 129] | < 5 |  | A (A (Fold activation >250%)) | 
COc1ccc(C(=O)Nc2cccc(-c3cn4ccc(C)cc4n3)c2)cc1 [Compound 130] | 5 to 50 |  | B (B (Fold Activation <250%)) | 
COc1cc(C(=O)Nc2cccc(-c3cn4cccc(C)c4n3)c2)cc(OC)c1OC [Compound 131] | 5 to 50 |  | A (A (Fold activation >250%)) | 
COc1ccccc1C(=O)Nc1cccc(-c2cn3ccsc3n2)c1 [Compound 132] | 5 to 50 |  | A (A (Fold activation >250%)) | 
COC(=O)c1cc(NC(=O)c2cc(OC)c(OC)c(OC)c2)cc(-c2nc3ccncc3s2)c1 [Compound 133, methyl 3-(thiazolo[5,4-c]pyridin-2-yl)-5-(3,4,5-trimethoxybenzamido)benzoate] | < 5 |  | B (B (Fold Activation <250%)) | 
COc1cc(C(=O)Nc2cc(C(=O)O)cc(-c3nc4ccncc4s3)c2)cc(OC)c1OC [Compound 134, 3-(thiazolo[5,4-c]pyridin-2-yl)-5-(3,4,5-trimethoxybenzamido)benzoic acid] | < 5 |  | B (B (Fold Activation <250%)) | 
COC(=O)c1cc(NC(=O)c2ccc(OC)c(OC)c2)cc(-c2nc3ncccc3o2)c1 [Compound 136, Methyl 3-(3,4-dimethoxybenzamido)-5-(oxazolo[4,5-b]pyridin-2-yl)benzoate] | > 150 |  |  | 
CN(C)c1cccc(C(=O)Nc2cc(C(=O)N3CCNCC3)cc(-c3nc4ncccc4o3)c2)c1 [Compound 138] | 5 to 50 |  | B (B (Fold Activation <250%)) | 
COc1ccc(C(=O)Nc2cc(C(=O)N3CCNCC3)cc(-c3nc4ncccc4o3)c2)c(OC)c1 [Compound 139] | 5 to 50 |  | B (B (Fold Activation <250%)) | 
COc1cc(OC)cc(C(=O)Nc2ccccc2-c2nc3ccccc3[nH]2)c1 [Compound 141] | < 5 |  | B (B (Fold Activation <250%)) | 
COc1ccc(C(=O)Nc2ccccc2-c2nc3ccccc3[nH]2)cc1OC [Compound 142] | < 5 |  | A (A (Fold activation >250%)) | 
COc1ccc(S(=O)(=O)Nc2ccccc2-c2nc3ccccc3[nH]2)cc1OC [Compound 143] | > 150 |  |  | 
COc1cc(C(=O)Nc2sccc2-c2nc3ccccc3s2)cc(OC)c1OC [Compound 144] | > 150 |  |  | 
COc1ccc(C(=O)Nc2sccc2-c2nc3ccccc3s2)cc1OC [Compound 145] | < 5 |  | B (B (Fold Activation <250%)) | 
COc1cc(OC)cc(C(=O)Nc2sccc2-c2nc3ccccc3s2)c1 [Compound 146] | < 5 |  | B (B (Fold Activation <250%)) | 
S=C(Nc1ccc2c(c1)OCO2)Nc1cccc(-c2nc3ncccc3o2)n1 [Compound 147] | > 150 |  |  | 
